Patent US11535621B2, “Heterobicyclic amides as inhibitors of CD38” (Ribon Therapeutics, Inc., priority 2019, dated 2022)
pIC50: −log10 of the molar value.

Biological target: Human CD38 (Homo sapiens (Human), UniProt P28907)
Experiment: CD38 enzyme assay
Format: biochemical
Details: 2 nM CD38, NAD+ substrate, absorbance at 405 nm
Text: [formula] where SUBcmpd is the subtracted value for the individual compound treated well, SUBmin is the average of the subtracted values of the 4-(((1r,4r)-4-(2-methoxyethoxy)cyclohexyl)amino)-1-methyl-6-(thiazol-5-yl)quinolin-2(1H)-one positive control wells and SUBmax is the average of the subtracted values of the DMSO negative control wells.
The % inhibition values were plotted as a function of compound concentration and the following 4-parameter fit was applied to derive the IC50 values:
[formula] where top and bottom are normally allowed to float, but may be fixed at 100 or 0 respectively in a 3-parameter fit. The Hill Coefficient is normally allowed to float but may also be fixed at 1 in a 3-parameter fit. Y is the % inhibition and X is the compound concentration.

Sequence of Human CD38 (P28907 whole entry): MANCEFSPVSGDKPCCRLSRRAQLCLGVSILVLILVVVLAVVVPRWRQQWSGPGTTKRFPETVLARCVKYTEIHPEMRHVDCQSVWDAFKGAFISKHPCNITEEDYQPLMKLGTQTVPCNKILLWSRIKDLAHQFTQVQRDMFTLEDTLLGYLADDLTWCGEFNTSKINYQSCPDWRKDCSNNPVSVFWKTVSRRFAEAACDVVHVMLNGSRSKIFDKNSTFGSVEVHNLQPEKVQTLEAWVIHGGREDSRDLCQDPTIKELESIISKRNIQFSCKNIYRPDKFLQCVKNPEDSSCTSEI

| Structure (SMILES) | pIC50 |
| --- | --- |
| CO[C@H]1C[C@H](NC(=O)c2nc(-n3ccnc3)nc3cc[nH]c23)C1 [Example 66, 2-(1H-Imidazol-1-yl)-N-((1r,3r)-3-methoxycyclobutyl)-5H-pyrrolo[3,2-d]pyrimidine-4-carboxamide] | 7.00 to 8.00 |
| CN(C)C(=O)CO[C@H]1CC[C@H](NC(=O)c2nc(-n3ccnc3)cc3cn[nH]c23)CC1 [Example 202, N-((1r,4r)-4-(2-(dimethylamino)-2-oxoethoxy)cyclohexyl)-5-(1H-imidazol-1-yl)-1H-pyrazolo[3,4-c]pyridine-7-carboxamide] | 7.00 to 8.00 |
| COCCO[C@H]1CC[C@H](NC(=O)c2nc(-n3ccnc3)cc3cnn(C)c23)CC1 [Example 197, 5-(1H-imidazol-1-yl)-N-((1r,4r)-4-(2-methoxyethoxy)cyclohexyl)-1-methyl-1H-pyrazolo[3,4-c]pyridine-7-carboxamide] | 7.00 to 8.00 |
| C[C@]1(NCC(F)(F)F)CC[C@@H](NC(=O)c2nc(-n3ccnc3)cc3cn[nH]c23)CC1 [Example 239, 5-(1H-imidazol-1-yl)-N-((1s,4s)-4-methyl-4-((2,2,2-trifluoroethyl)amino)cyclohexyl)-1H-pyrazolo[3,4-c]pyridine-7-carboxamide] | > 8.00 |
| C[C@]1(O)CC[C@@H](NC(=O)c2nc(-n3ccnc3)cc3cn[nH]c23)CC1 [Example 226, N-((1s,4s)-4-hydroxy-4-methylcyclohexyl)-5-(1H-imidazol-1-yl)-1H-pyrazolo[3,4-c]pyridine-7-carboxamide] | 7.00 to 8.00 |
| COCCO[C@H]1CC[C@H](NC(=O)c2nc(-n3ccnc3)nc3c(C)c[nH]c23)CC1 [Example 268, 2-(1H-imidazol-1-yl)-N-((1r,4r)-4-(2-methoxyethoxy)cyclohexyl)-7-methyl-5H-pyrrolo[3,2-d]pyrimidine-4-carboxamide] | 7.00 to 8.00 |
| COCCN[C@H]1CC[C@H](NC(=O)c2nc(-n3ccnc3)nc3cc[nH]c23)CC1 [Example 56, 2-(1H-Imidazol-1-yl)-N-((1r,4r)-4-((2-methoxyethyl)amino)cyclohexyl)-5H-pyrrolo[3,2-d]pyrimidine-4-carboxamide] | 7.00 to 8.00 |
| COCCO[C@H]1CC[C@H](NC(=O)c2nc(-n3ccnc3)nc3cn[nH]c23)CC1 [Example 23, 5-(1H-Imidazol-1-yl)-N-((1r,4r)-4-(2-methoxyethoxy)cyclohexyl)-1H-pyrazolo[4,3-d]pyrimidine-7-carboxamide] | 7.00 to 8.00 |
| CC(=O)NC[C@H]1CC[C@H](NC(=O)c2nc(-n3ccnc3)nc3cn[nH]c23)CC1 [Example 243, N-((1r,4r)-4-(acetamidomethyl)cyclohexyl)-5-(1H-imidazol-1-yl)-1H-pyrazolo[4,3-d]pyrimidine-7-carboxamide] | 7.00 to 8.00 |
| CO[C@]1(C)CC[C@H](NC(=O)c2nc(-n3ccnc3)nc3cc[nH]c23)CC1 [Example 128b, 2-(1H-imidazol-1-yl)-N-((1s,4s)-4-methoxy-4-methylcyclohexyl)-5H-pyrrolo[3,2-d]pyrimidine-4-carboxamide] | 7.00 to 8.00 |
| O=C(NC1CCN(CC(F)(F)F)CC1)c1nc(-n2ccnc2)nc2cc[nH]c12 [Example 52, 2-(1H-Imidazol-1-yl)-N-(1-(2,2,2-trifluoroethyl)piperidin-4-yl)-5H-pyrrolo[3,2-d]pyrimidine-4-carboxamide] | 7.00 to 8.00 |
| CC(=O)N1CC2CC1CC2NC(=O)c1nc(-n2ccnc2)nc2cc[nH]c12 (stereo not drawn) [Example 172] | 7.00 to 8.00 |
| CC(C)(O)[C@H]1C[C@H](NC(=O)c2nc(-n3ccnc3)cc3cn[nH]c23)C1 [Example 266, N-((1r,3r)-3-(2-hydroxypropan-2-yl)cyclobutyl)-5-(1H-imidazol-1-yl)-1H-pyrazolo[3,4-c]pyridine-7-carboxamide] | 7.00 to 8.00 |
| COCCO[C@H]1CC[C@H](NC(=O)c2cc(-n3ccnc3)nc3cc[nH]c23)CC1 [Example 10, 5-(1H-imidazol-1-yl)-N-((1r,4r)-4-(2-methoxyethoxy)cyclohexyl)-1H-pyrrolo[3,2-b]pyridine-7-carboxamide] | 7.00 to 8.00 |
| O=C(Nc1ccon1)c1nc(-n2ccnc2)nc2cc[nH]c12 [Example 162] | > 8.00 |
| O=C(N[C@H]1CC[C@H](NCC(F)(F)F)CC1)c1nc(-n2ccnc2)nc2cc[nH]c12 [Example 101, 2-(1H-imidazol-1-yl)-N-((1r,4r)-4-((2,2,2-trifluoroethyl)amino)cyclohexyl)-5H-pyrrolo[3,2-d]pyrimidine-4-carboxamide] | 7.00 to 8.00 |
| CC(=O)N1CCC(NC(=O)c2nc(-n3ccnc3)nc3cc[nH]c23)CC1 [Example 64, N-(1-Acetylpiperidin-4-yl)-2-(1H-imidazol-1-yl)-5H-pyrrolo[3,2-d]pyrimidine-4-carboxamide] | 7.00 to 8.00 |
| C[C@](O)(C(=O)NC1CCC(NC(=O)c2nc(-n3ccnc3)nc3cc[nH]c23)CC1)C(F)(F)F (stereo partly drawn) [Example 127b, 2-(1H-imidazol-1-yl)-N-((1R,4r)-4-((S)-3,3,3-trifluoro-2-hydroxy-2-methylpropanamido)cyclohexyl)-5H-pyrrolo[3,2-d]pyrimidine-4-carboxamide] | 7.00 to 8.00 |

More lines, now with the values ahead:

| pIC50 | Structure (SMILES) |
| --- | --- |
| 7.00 to 8.00 | O=C(NCc1c(F)cccc1C(F)(F)F)c1nc(-n2ccnc2)nc2ccsc12 [Example 49, N-(2-Fluoro-6-(trifluoromethyl)benzyl)-2-(1H-imidazol-1-yl)thieno[3,2-d]pyrimidine-4-carboxamide] |
| 7.00 to 8.00 | CC(C)(O)[C@H]1CC[C@H](NC(=O)c2nc(-n3ccnc3)nc3cc[nH]c23)CC1 [Example 139] |
| > 8.00 | CC(C)(O)[C@H]1CC[C@H](NC(=O)c2nc(-n3ccnc3)cc3ccsc23)CC1 [Example 260, N-((1r,4r)-4-(2-hydroxypropan-2-yl)cyclohexyl)-5-(1H-imidazol-1-yl)thieno[2,3-c]pyridine-7-carboxamide] |
| 7.00 to 8.00 | COCCO[C@@H]1CCC[C@H](NC(=O)c2nc(-n3ccnc3)nc3cc[nH]c23)C1 [Example 124b, 2-(1H-imidazol-1-yl)-N-((1S,3R)-3-(2-methoxyethoxy)cyclohexyl)-5H-pyrrolo[3,2-d]pyrimidine-4-carboxamide] |
| 7.00 to 8.00 | C[C@@H](O)CO[C@H]1CC[C@H](NC(=O)c2nc(-n3ccnc3)nc3cc[nH]c23)CC1 (single isomer, unassigned) [Example 125a] |
| > 8.00 | CN1CCN(c2ccc(NC(=O)c3nc(-n4ccnc4)nc4cc[nH]c34)cn2)CC1 [Example 154] |
| 7.00 to 8.00 | CN(C)C(=O)CO[C@H]1CC[C@H](NC(=O)c2nc(-n3ccnc3)nc3cn[nH]c23)CC1 [Example 201, N-((1r,4r)-4-(2-(dimethylamino)-2-oxoethoxy)cyclohexyl)-5-(1H-imidazol-1-yl)-1H-pyrazolo[4,3-d]pyrimidine-7-carboxamide] |
| 7.00 to 8.00 | O=C(N[C@H]1CC[C@H](N2CC(C(F)(F)F)C2)CC1)c1nc(-n2ccnc2)cc2cn[nH]c12 [Example 234, 5-(1H-imidazol-1-yl)-N-((1r,4r)-4-(3-(trifluoromethyl)azetidin-1-yl)cyclohexyl)-1H-pyrazolo[3,4-c]pyridine-7-carboxamide] |
| 7.00 to 8.00 | COCCO[C@H]1CC[C@H](NC(=O)c2cc(-n3ccnc3)cc3cc(CN)[nH]c23)CC1 [Example 19, 2-(Aminomethyl)-5-(1H-imidazol-1-yl)-N-((1r,4r)-4-(2-methoxyethoxy)cyclohexyl)-1H-indole-7-carboxamide] |
